We go through eleven molecules from patent publication US6046177A, “Sulfoalkyl ether cyclodextrin based controlled release solid pharmaceutical formulations” (Cydex, Inc., priority 1999, dated 2000).

In brackets after ≈: the same amount, converted by molar mass.

The conditions of data set [1]: gels with methyl-β-cyclodextrin; cited from earlier work.
For data set [2] the following is noted: cited from earlier work; for dissolution of complex vs. physical mixture: β-cyclodextrin complex vs. physical mixture.
For data set [3] the following is noted: osmotic pump tablet with (SBE)7M -β-CD; cited from earlier work.
The nature of data set [4]: Release of prednisolone and SBE7 β-CD from uncoated controlled release tablet cores. Particulars: for effect of HPMC viscosity 15,000 to 100,000 cps on release: 5% PD. Format: physicochemical. Here is the method: The above ingredients are used to make a 300 mg tablet core having a controlled release profile. The ingredients were blended by hand and individual tablets were prepared on a carver press under a pressure of 1 ton for 7 seconds. The tablets were prepared using a 5/16" standard cup concave tooling. The determination of the release profile by dissolution was conducted according to USP method 2 at 37°, 100 rpm with paddles in a 900 ml water bath. The amounts of prednisolone (PD) released was determined by HPLC, and the amount of SBE7 -βCD released was determined by TNS as described herein.

Data set [5] can be described thus: In vitro release of dipyridamole from coated tablets (USP apparatus II). Format: physicochemical. As for the experimental part:
The sample volume was 20 μl and the UV detection wavelength was […] (Shimadzu 6A, Shimadzu, Japan). A mobile phase consisting of 70% methanol and 30% ammonium phosphate buffer (pH 5.0) was passed through the column at a flow rate of 1.5 ml/min. (SBE)7m -β-CD was detected by using a fluorimetric assay, 0.2 ml of a 1 mM solution of 2,6-toluidino-naphthalene-sulfonate to 0.8 ml of the sample. This solution was then excited at 325 nm and the emitted fluorescence detected at 455 nm using a Perkin 25 Elmer (Perkin-Elmer, CT) Fluorescence detector.
The ground physical mixture was then sieved through a 200 mesh (75 μm) screen. This process was repeated twice. This mixture was always stored in a desiccator when not used.
The dissolution die consists of a cylindrical stainless steel center-piece,a stainless steel platform, a stainless steel top cover, two Teflon sheets (top and bottom) and Teflon inserts. The cylindrical center-piece has a hole (radius=7.5 mm ) at the center in which the tablet is compressed. Both, the stainless steel top cover and top Teflon sheet have holes of same radius at the center. The center-piece was inverted and screwed onto the platform. […] The tablet core was compressed with a force of one ton for one minute using Carver press (Fred Carver Inc., NJ). The punch was carefully removed from the center-piece.
™ coatings were made by dissolving 5% (w/w) of […]™ R or S (Huls America, NJ), 5% of urea (SIGMA, MO) or polyethylene glycol (PEG 3350, SIGMA, MO) and 0.75% of triethyl Citrate (TEC, SIGMA, MO) in 89.25% ethanol. This was carried out until a clear solution was obtained. Cellulose acetate (CA-320S7 Eastman Chemical Co., TN) and hydroxypropyl methylcellulose phthalate (HPMCP, Eastman Chemical Co., TN) polymeric solutions were made by dissolving 5% of polymers and 1% of TEC in 94% of solvent containing equal amounts of methylene chloride and methanol. The ratio of CA to HPMCP was varied from 50:50 to 75:25 but the total amount of polymer was always maintained at 5%. The dissolution was carried out until clear solutions were obtained.
This coating solution was then air sprayed directly on the tablet surface under constant air flow (approx. 70° C.). The coated tablets were dried additionally for a period of 15 minutes under the same air flow. The tablets were additionally dried for a period of 12-16 hr. at room temperature. The thickness of the membrane was assumed to be the difference of thickness of the tablet after and before coating. The thickness measurements were carried out using a Screw-gauge micrometer.
The release studies for tablets coated with Eudragit L and CA: HPMCP were conducted by placing the dissolution die in a USP dissolution apparatus II (Vanderkamp 600, VanKel Industries Inc.) containing 450 ml of HCl (pH 1.5, 37° C. and 100 r.p.m.). […] 1.5 ml samples were collected periodically and equal amounts of dissolution medium was returned to the dissolution vessel. For the CA: HPMCP coated tablet, 100% release was determined by removing the membrane from the die and allowing the drug dissolution to be complete. The release experiments for tablets coated with Eudragit were conducted similarly in 450 ml of HCl for the first 2 hours, then placed in a phosphate buffer (pH 6.4) for additional 5 hr. and then placed in a phosphate buffer (pH 7.2). The release conditions and procedures were as described above.
0.5 ml of the sample was diluted by half in the mobile phase and the diluted samples were then analyzed using HPLC assay to determine drug concentrations as described in a later section.

The conditions of data set [6]: in words; cited from earlier work.
A short description of another data set: physchem. As for the experimental part: (SBE)7 -β-CD (0-0.1 M) solutions were made in different buffer solutions at pH values ranging from 4.0 to 7.0 (citrate for 4 & 5; phosphate for 6 &7). […] The solutions were centrifuged for 10 min. at 2500 rpm. 20 μl of the supernatant was carefully sampled using a 100 μl gas-tight Hamilton Syringe (Hamilton, Nev.), diluted with mobile phase and analyzed by HPLC. The solubility data was then used to determine the binding constant using the method of Higuchi and Connors for AL-type phase behavior.

A short description of data set [7]: In vitro release of dipyridamole from coated tablets (USP apparatus II). Format: physicochemical. Particulars: for release of DP without SAE-CD: core DP, citric acid, fructose-lactose.
A further data set is described as follows: pKa of dipyridamole. The class given is physicochemical. Particulars: basic drug.

One may read the solubility as the dissolved amount per volume that the medium holds. A low value points to little dissolved substance. The pKa is the negative logarithm of the acid dissociation constant. Read a low pKa as a group that gives up its proton readily.

For the molecule `O=C1CN=C(c2ccccc2Cl)c2cc([N+](=O)[O-])ccc2N1` [clonazepam], the “flux rate of clonazepam” value in data set [1] is “improves the flux rate”.
For the molecule `CC(=O)CC(c1ccccc1)c1c(O)c2ccccc2oc1=O` (centres unmarked) [warfarin], the “dissolution of complex vs. physical mixture” value in data set [2] is on record as “significantly better, dissolution profile”.
Consider `CN1C(=O)C(O)N=C(c2ccccc2)c2cc(Cl)ccc21` (centres unmarked) [temazepam], for which the “dissolution of complex vs. physical mixture” value in data set [2] is recorded as “In only one of several examples did Martini et al. obtain a physical mixture formulation having a dissolution profile comparable to that of the preformed complex formulation”.
Turning to `CN1C(C(=O)Nc2ccccn2)=C(O)c2ccccc2S1(=O)=O` [piroxicam], the “dissolution of complex vs. physical mixture” value in data set [2] is recorded as “significantly better, dissolution profile”.
Take `Cc1cccc(N(C)C(=S)Oc2ccc3ccccc3c2)c1` [tolnaftate]: the “dissolution of complex vs. physical mixture” value in data set [2] was “improved dissolution over the physical mixture or free drug”.
Regarding `C[C@]12C=CC(=O)C=C1CC[C@@H]1[C@@H]2[C@@H](O)C[C@@]2(C)[C@H]1CC[C@]2(O)C(=O)CO` [prednisolone], the release profile result in data set [3] is “sustained release profile is provided by the osmotic pump tablet so long as the semipermeable membrane is present”. The “effect of HPMC viscosity 15,000 to 100,000 cps on release” value in [4] (35% SAE-CD, 50% HPMC, 10% lactose, FIG. 20) was “substantially independent of the viscosity of the HPMC”; in data set [4] (70% SAE-CD, 25% HPMC, FIG. 19) it was “the rate of delivery of the PD and the overall amount of PD delivered increases”. In data set [4] (PD 5%, HPMC approximately 25%, FIG. 17), the “effect of decreasing SAE-CD (increasing lactose) on delivery” value is “the rate of delivery of the PD and the overall amount of PD delivered decrease”. Also, the “effect of increasing release rate modifier ratio on release rate” value in data set [4] (PD 5%, SAE-CD 35%, HPMC 25% to 50%, FIG. 18) is reported as “the release rate of the drug is decreased”. Besides, the PD released result in data set [4] (control HPMC K100M, no cyclodextrin, eleven hours, FIG. 19) is listed as “approximately 50 % by weight”; in data set [4] (control HPMC K100M, no cyclodextrin, six hours, FIG. 19) it was “approximately 30 % by weight”; in data set [4] (no cyclodextrin, HPMC, after eleven hours, FIG. 16), “approximately 50 % by weight”; in data set [4] (with SAE-CD, HPMC, approximately six hours, FIG. 16), “greater than 90%”; in data set [4] (with SAE-CD, HPMC, eleven hours, FIG. 16) it was “substantially complete delivery of the drug”. The drug released in [4] (release rate modifier:drug approximately 5:1, 12 hours, FIG. 18) is 75-90%; in [4] (release rate modifier:drug approximately 5:1, about six hours, FIG. 18), 65-75%; in data set [4] (release rate modifier:drug approximately 10:1, 12 hours, FIG. 18) it was 55-60%; in [4] (release rate modifier:drug approximately 10:1, about six hours, FIG. 18), 40-50%.
With `CC(=O)Nc1ccc(O)cc1` [acetaminophen], the “dissolution of complex vs. physical mixture” value in [2] is on record as “significantly better, dissolution profile”.
For the molecule `CCC1(c2ccccc2)C(=O)NC(=O)NC1=O` [phenobarbitone], in [2] (β-cyclodextrin), the “controlled dissolution, preformed complex vs. physical mixture” value was “preformed complex performs substantially better than the physical mixture”.
Turning to `COc1ccc2c(c1)c(CC(=O)O)c(C)n2C(=O)c1ccc(Cl)cc1` [indomethacin], the “dissolution of complex vs. physical mixture” value in data set [2] was “significantly better, dissolution profile”.
On to `OCCN(CCO)c1nc(N2CCCCC2)c2nc(N(CCO)CCO)nc(N3CCCCC3)c2n1` [dipyridamole], for which the type of release entry in data set [5] (90 μm film, CA:HPMCP 1:1, FIG. 14) is “delayed release”; in data set [5] (105 μm film, CA:HPMCP 6:4, FIG. 14) it was “combined delayed and controlled release”; in data set [5] (CA:HPMCP 1:1 film, FIG. 12), “combined delayed and controlled release”. Further, the “effect of film thickness on release profile” value is given as “did not appear to substantially affect the release profile” in data set [5] (CA/HPMCP film 90 μm to 170 μm, FIG. 13) and “independent of film thickness but dependent upon solution pH” in [5] (EUDRAGIT-L/urea film, physical mixture core, FIG. 10). In addition, the “pH at which DP is released” value is given as around 7.2 in data set [5] (EUDRAGIT-S and urea film, FIG. 11); “about 6.8” in [5] (comparison (EUDRAGIT-L and urea film)). Moreover, the bioavailability result in data set [6] was “low and variable bioavailability”. The solubility at 24 h in “physchem” (citrate buffer with sbe7 β-cd, pH 4) is 16000 µg/mL (≈ 31700 µM); in the data set “physchem” (citrate buffer, pH 4, aqueous buffer), 1990 µg/mL (≈ 3940 µM); in “physchem” (phosphate buffer with sbe7 β-cd, pH 7) it was 504 µg/mL (≈ 999 µM); in “physchem” (phosphate buffer, pH 7, aqueous buffer) it was 3.56 µg/mL (≈ 7.05 µM). The solubility in the data set “physchem” (water) was 3.6 µg/mL (≈ 7.13 µM). The “release profile, SBE7 β-CD vs. DP” value in data set [7] (EUDRAGIT-L film 150 μm, pH raised from 1.5 to 6.8 after two hours, FIG. 9) was “substantially the same release profile”. Moreover, the release delay result in data set [7] (EUDRAGIT-L film, pH 1.5 to 6.8, FIG. 9) is on record as “two hour delay”. For the same molecule, the “release of DP without SAE-CD” value is given as “no release of DP was obtained” in data set [7] (CA:HPMCP (50:50) 120 μm film); “incomplete release of DP was observed” in data set [7] (EUDRAGIT-L and urea (50:50) 120 μm film). This molecule also came in with a pKa in the data set “pKa of dipyridamole” of 6.28.
In the case of `N=C(N)NCC1CCC(C(=O)Oc2ccccc2C(=O)OCc2ccccc2)CC1` (centres unmarked) [benexate], in data set [2] (cyclodextrin complex vs. physical mixture or neat), the “solubility of complex vs. physical mixture” value is “significantly increased solubility”.
